Measurements as given in patent publication US20110257130A1 (priority 2008, published 2011).
Like-named read-outs stand apart in the source and are kept apart here.

Tests used:
[1] = target: Angiotensin Converting Enzyme (ACE) (UniProt P12822); experiment: fluorimetric ACE assay with HHL substrate, 96-well format; assay type: biochemical; details: for reduction of ACE activity (formation of L-histidyl-L-leucine): compound incubated with enzyme at 37° C. for 30 min
Experimental: To determine whether the compounds of the presently-disclosed subject matter were capable of reducing the enzymatic activity of Angiotensin Converting Enzyme (ACE), an ACE assay was carried out according to the standard protocols (see, e.g., Schwager, et al. A high-throughput fluorimetric assay for angiotensin I-converting enzyme, Nature Protocols, 2006; 1 (4): 1961-1964, which is incorporated herein by this reference). The ACE assay involved a fluorimetric procedure in which the substrate hippury-L-histidyl-L-leucine (HHL) was used, and the fluorescent adduct of the enzyme-catalyzed product L-histidyl-L-leucine was quantified fluorimetrically. […] The results from the assay were analyzed in a 96-well plate reader with each concentration measured in triplicate.
Briefly, in a total of 250 μL assay volume, 10 μL of ACE enzyme (Sigma Chemical Co., St. Louis, Mo.) and 10 μL of either 1-(6,8-dimercaptooctanyl)pyrrolidine-2-carboxylic acid or prolyl lipoic acid (Formula (III) was added. Both compounds were incubated with enzyme at 37° C. for 30 min. The ACE substrate HHL, 6 μL in buffer, was then added to each well followed by incubation at 45° C. for 30 min. 170 μL of 0.3M sodium hydroxide solution was added to above solution followed by the addition of phalaldehyde solution in methanol. The mixture was then allowed to shake for 5 min. This step was followed by the addition of 32 μL of 2N hydrochloric acid to each well and subsequent measurement of the fluorescence at an excitation wavelength of 360 nm and an emission wavelength of 480 nm. Three controls were used to compare the readings, with the controls including wells without the enzyme, wells without the compounds, and wells without the HHL enzymatic substrate.
To further examine the IC50 value in relation to the absolute amounts of thiol groups of the 1-(6,8-dimercaptooctanyl)pyrrolidine-2-carboxylic acid compound, however, the amount of thiol groups in the reaction mixtures was also measured according to Ellman's method (see, e.g. Simpson R J, Estimation of free thiols and disulfide bonds using Ellman's reagent, CSHL Press, Cold Spring Harbor, N.Y., 2003; and, Ellman G L, Tissue sulfhydral groups, Arch. Biochem. Biophys., 1959; 82: 70-77, each of which are incorporated herein by this reference). […] The TNB^2− can then be quantified in a spectrophotometer by measuring the absorbance of visible light at 412 nm, using an extinction coefficient of 14,150M^−1 cm^−1 for dilute buffer solutions, and a coefficient of 13,700 M^−1 cm^−1 for high salt concentrations, such as 6 M guanidinium hydrochloride or 8 M urea. […] The absorbance was measured at 412 nm. […]

[2] = test system: pre-constricted rat aortic segments; experiment: vasodilation of phenylephrine pre-constricted aortic rings in myograph; set-up: species or system male Sprague-Dawley Rats; details: for relaxation of pre-constricted rat aortic segments: phenylephrine 0.1 μM pre-constriction, after 4-hour incubation with 44 mM glucose
Experimental: To determine the effect of lipoic acid and prolyl lipoic acid (Formula (III)) on vasodilation, aortas from male Sprague-Dawley Rats (n=2) were utilized. Briefly, each animal was first sacrificed and their aortas were removed. The aortas were then incubated in phosphate-buffered-saline (PBS) containing 44 mM glucose for 4 hours. Eight 5-mm ring segments of thoracic aorta were then suspended in a myograph chamber filled with a Krebs buffer of the following composition: NaCl, 118.3; KCl, 4.69; CaCl2, 1.87; MgSO4, 1.20; K2HPO4, 1.03; NaHCO3 25.0; and glucose 11.1; all values in mM, pH 7.40. During the following hour, the resting tension was increased to optimize constrictions due to exposure to KCl. The vessel segments were then pre-constricted with phenylephrine (PE; 0.1 μM) and were subjected to prolyl lipoic acid (Formula (III)) or lipoic acid. Vasodilation in the rat aortic rings in response to L-prolyl lipoic acid (1×10^−4 M) or lipoic acid (1×10^−4 M) (both dissolved in aqueous media) was then measured after a 4-hour incubation with glucose (44 mM). Endothelial cell function in the aortic rings was also measured by pre-constricting the aortic rings to the EC50 of phenylephrine and then subjecting the rings to a maximum acetylcholine dose (10^−5M).

[3] = test system: spontaneously hypertensive stroke prone rats (SHRSP); experiment: blood pressure by intra-arterial catheter / radio-telemetry in hypertension model; assay type: in vivo, rat
Source text: To determine the effect of prolyl lipoic acid (Formula (III)) in an animal model of hypertension, spontaneously hypertensive stroke prone rats (SHRSP) were first procured from Charles River at the age of 6 weeks (Charles River Laboratories, Wilmington, Mass., U.S.A.). After a period of acclimatization for 4 weeks, the rats were then implanted with intra-arterial catheters in the abdominal aorta along with a radio-telemetry monitoring device to assess systolic blood pressure. Briefly, to implant the radio-telemetry devices, the operative procedure involved anesthetizing the animals with 375 mg/kg of 2,2,2-tribromoethanol (Sigma Chemical Co., St. Louis, Mo.). An incision was then made in the abdomen and the aorta was exposed. A 0.4 mm catheter attached to a combination pressure transducer, transmitter, and battery, all encapsulated in a implantable micro-miniature electronic monitor (PA-C20, Data Sciences International, St. Paul, Minn.), was then inserted.
Following implantation of the radio-telemetry devices, the animals were allowed to recover and the aortic pressure of each animal was monitored continuously. Once the animals sufficiently recovered, the rats then received 50 mg/kg of prolyl lipoic acid, dissolved in aqueous media, in a single dose. The blood pressures were then measured over a period of 12 hours and compared to the previous 12 hour period. […]
During the 6 week experimental period, blood pressure measurements were performed in a sub-group of 4 animals randomized to prolyl lipoic acid by intra-arterial catheter placement in the infra-renal aorta and acute administration of the prolyl lipoic acid prior to administration of drug. Additionally, four SHRSP rats (12 weeks old) were implanted with radio-telemetry transmitters (DataSciences Inc., St. Paul, Minn.) into their abdominal aortas and blood pressure was measured using the DSI system (DataSciences Inc.). In these later experiments, blood pressure was recorded continuously over 24-hour periods and reported as the change in blood pressure in the 12-hour period following the administration of the agent.

[4] = test system: spontaneously hypertensive stroke prone rats (SHRSP); experiment: endothelial function by myography of aortic segments after 6 weeks of treatment; assay type: in vivo, rat; details: 50 mg/kg daily IP, pre-contraction 0.3 μM phenylephrine
Experimental: (§1) To further examine the effects of prolyl lipoic acid (Formula (III)) on hypertension, the effect of prolyl lipoic acid was examined in spontaneously hypertensive rats over a longer time period. Briefly, spontaneously hypertensive rats (SHRSP rats, 10 weeks of age, n=10/group) were randomized to placebo or prolyl lipoic acid (50 mg/kg) groups for a duration of 6 weeks. The animals were housed 2 to a cage and were given Harlan-Teklad Laboratory Rodent Diet ad libitum (Harlan Laboratories, Indianapolis, Ind.). Prolyl lipoic acid or saline placebo was administered to the rats by daily intraperitoneal (IP) dosing.
Following the completion of the six week period, the animals were euthanized at week 17 by lethal pentobarbital injection and tissues were removed from the animal. Upon removal of the tissues, endothelial function was assessed. It is known that endothelial function can refer to the unimpaired production of or availability of NO and/or a balance in the relative contribution of endothelium-derived relaxing and contracting factors (such as ET-1, angiotensin, and oxidants). […] As such, once the tissues were removed from the animals, endothelial cell function was assessed in the experimental groups by myography as percent-relaxation to acetylcholine or sodium nitroprusside subsequent to pre-contraction with 0.3 μM phenylephrine.

[5] = test system: inflammatory genes (ICAM1, IL-6, IL-1β, MCP1, TGF-β1, VCAM1, TNF-α); experiment: inflammatory gene expression (mRNA transcript levels) in tissues after 6 weeks of treatment; assay type: in vivo, rat; details: 50 mg/kg daily IP
Experimental: as §1
Furthermore, inflammatory gene expression was assessed in the aorta, heart, brain and kidney by probing for mRNA transcript levels of the various inflammatory genes. Aortic and cardiac collagen synthesis was also assessed by Picrosirius Red staining and Massom-Trichrome staining and quantified by an automated thresholding program.

[6] = test system: spontaneously hypertensive stroke prone rats (SHRSP); experiment: histology of organ sections (H&E wall thickness, CD68 staining) after 6 weeks of treatment; assay type: in vivo, rat; details: 50 mg/kg daily IP
Experimental: as §1
Additionally, four to eight sections of each organ were stained with CD68 or H&E for 10 animals (5 in each group) and images were obtained at 200× by bright-field microscopy. MetaMorph software was used for automated thresholding. The percentage of thresholded area of the picture was recorded and reported. Additionally, about 12 organ sections per rat were prepared for 10 of the rats (5 in each group). These sections were 5 microns in size and were stained with hematoxylin and eosin (H&E). Images were obtained at 40× (using bright-field microscopy and analyzed using MetaMorph software. For each image, the external elastic lamina of the aorta was traced using a drawing tool, and this area was logged. The luminal area was also measured. Thus, the tunica intima and tunica media were included in these measurements, not tunica adventitia. The wall thickness was calculated by subtracting the luminal area from the wall area.

Sequence of Angiotensin Converting Enzyme (ACE) (P12822 whole entry): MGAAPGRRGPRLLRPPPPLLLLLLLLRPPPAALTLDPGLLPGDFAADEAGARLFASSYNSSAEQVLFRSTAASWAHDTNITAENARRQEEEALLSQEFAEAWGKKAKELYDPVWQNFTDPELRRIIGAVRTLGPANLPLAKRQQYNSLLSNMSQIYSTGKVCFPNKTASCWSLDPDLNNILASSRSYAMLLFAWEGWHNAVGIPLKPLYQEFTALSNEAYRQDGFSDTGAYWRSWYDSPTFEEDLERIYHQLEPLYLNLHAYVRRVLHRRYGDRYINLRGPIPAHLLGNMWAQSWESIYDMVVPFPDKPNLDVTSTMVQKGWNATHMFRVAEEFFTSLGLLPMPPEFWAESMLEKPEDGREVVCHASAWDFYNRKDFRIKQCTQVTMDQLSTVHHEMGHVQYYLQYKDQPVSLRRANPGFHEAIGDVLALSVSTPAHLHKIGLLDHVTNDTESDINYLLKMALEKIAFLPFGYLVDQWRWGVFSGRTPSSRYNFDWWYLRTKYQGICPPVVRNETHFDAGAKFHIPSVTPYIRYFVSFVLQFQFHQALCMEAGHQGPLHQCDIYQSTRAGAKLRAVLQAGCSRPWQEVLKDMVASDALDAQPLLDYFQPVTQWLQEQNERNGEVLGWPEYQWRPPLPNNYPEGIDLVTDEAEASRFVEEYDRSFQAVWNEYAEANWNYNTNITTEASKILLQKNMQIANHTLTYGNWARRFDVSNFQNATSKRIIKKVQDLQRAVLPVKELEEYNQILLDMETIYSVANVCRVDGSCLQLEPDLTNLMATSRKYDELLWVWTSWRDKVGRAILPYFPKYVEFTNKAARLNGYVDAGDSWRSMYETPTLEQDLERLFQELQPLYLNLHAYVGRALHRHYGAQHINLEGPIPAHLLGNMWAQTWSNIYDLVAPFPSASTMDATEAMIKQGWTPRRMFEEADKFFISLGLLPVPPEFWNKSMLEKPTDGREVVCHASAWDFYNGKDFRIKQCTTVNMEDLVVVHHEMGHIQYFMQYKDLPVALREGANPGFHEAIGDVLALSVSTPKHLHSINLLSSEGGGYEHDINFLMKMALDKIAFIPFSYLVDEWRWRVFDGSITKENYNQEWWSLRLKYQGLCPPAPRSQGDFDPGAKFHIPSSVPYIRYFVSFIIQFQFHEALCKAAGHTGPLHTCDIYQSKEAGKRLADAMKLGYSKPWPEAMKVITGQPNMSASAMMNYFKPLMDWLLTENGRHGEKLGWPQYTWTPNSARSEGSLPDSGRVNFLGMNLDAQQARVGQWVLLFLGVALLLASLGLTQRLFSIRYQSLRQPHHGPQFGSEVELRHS

O=C(O)C1CCCN1C(=O)CCCCC(S)CCS (stereo not drawn)
reduction of ACE activity (formation of L-histidyl-L-leucine) [1]: effectively reduce ACE activity | IC50 ([1]; corrected for thiol content by Ellman's method, read-out: IC50 value recalculated after thiol quantification): 6.6 µM | IC50 ([1]; from plot of fluorescence counts against concentration (FIG. 13), read-out: IC50 value, initially found): ~29 µM

O=C(O)CCCCC1CCSS1 (stereo not drawn) [lipoic acid, alpha lipoic acid, reference compound]
relaxation of pre-constricted rat aortic segments ([2]; 1×10^−4 M): relaxed pre-constricted rat aortic segments

O=C(O)C1CCCN1C(=O)CCCCC1CCSS1 [prolyl lipoic acid, L-prolyl lipoic acid]
reduction of ACE activity (formation of L-histidyl-L-leucine) [1]: effectively reduce ACE activity | relaxation of pre-constricted rat aortic segments ([2]; 1×10^−4 M): relaxed pre-constricted rat aortic segments | relaxation as compared to lipoic acid ([2]; 1×10^−4 M, same aortic ring test (FIG. 15)): increase in relaxation as compared to lipoic acid | endothelial function in aortic rings (vasodilation following acetylcholine) ([2]; rings pre-constricted to EC50 of phenylephrine, acetylcholine 10^−5M): improve endothelial function | blood pressure after a single dose ([3]; 50 mg/kg single dose, 12 hours after versus previous 12 hour period): significantly reduced blood pressure | effects on blood pressure relative to captopril ([3]; 50 mg/kg versus captopril 100 mg/kg (FIG. 20)): comparable to the angiotensin converting enzyme inhibitor, captopril | blood pressure, acute administration ([3]; 50 mg/kg, SHRSP rats, FIGS. 18-19): acutely lowered blood pressure | endothelial function (relaxation to acetylcholine or sodium nitroprusside) [4]: improved endothelial function | inflammatory gene expression in aorta ([5]; aorta): markedly reduced inflammatory gene expression | ICAM1 expression in brain ([5]; brain): some reductions in expression | IL-6 expression in brain ([5]; brain): some reductions in expression | reduction in inflammatory gene expression in brain ([5]; brain, compared with other tissues): not as pronounced | inflammatory gene expression in heart ([5]; heart): markedly reduced inflammatory gene expression | inflammatory gene expression in kidney ([5]; kidney): markedly reduced inflammatory gene expression | CD68 expression in the brain [6]: without affecting CD68 expression | CD68 expression in the kidneys [6]: without affecting CD68 expression | CD68 expression in the myocardium [6]: without affecting CD68 expression | inflammatory cell recruitment to the heart [6]: favorable effects | inflammatory cell recruitment to the kidney [6]: favorable effects | aortic medial hypertrophy ([6]; H&E sections): effects in reducing aortic medial hypertrophy
